The assay addresses T1, Androgen Receptor (Homo sapiens, UniProt P10275).
T1 construct: endogenous in cells; host or cells: VCaP cells
T1 sequence (P10275 1-920): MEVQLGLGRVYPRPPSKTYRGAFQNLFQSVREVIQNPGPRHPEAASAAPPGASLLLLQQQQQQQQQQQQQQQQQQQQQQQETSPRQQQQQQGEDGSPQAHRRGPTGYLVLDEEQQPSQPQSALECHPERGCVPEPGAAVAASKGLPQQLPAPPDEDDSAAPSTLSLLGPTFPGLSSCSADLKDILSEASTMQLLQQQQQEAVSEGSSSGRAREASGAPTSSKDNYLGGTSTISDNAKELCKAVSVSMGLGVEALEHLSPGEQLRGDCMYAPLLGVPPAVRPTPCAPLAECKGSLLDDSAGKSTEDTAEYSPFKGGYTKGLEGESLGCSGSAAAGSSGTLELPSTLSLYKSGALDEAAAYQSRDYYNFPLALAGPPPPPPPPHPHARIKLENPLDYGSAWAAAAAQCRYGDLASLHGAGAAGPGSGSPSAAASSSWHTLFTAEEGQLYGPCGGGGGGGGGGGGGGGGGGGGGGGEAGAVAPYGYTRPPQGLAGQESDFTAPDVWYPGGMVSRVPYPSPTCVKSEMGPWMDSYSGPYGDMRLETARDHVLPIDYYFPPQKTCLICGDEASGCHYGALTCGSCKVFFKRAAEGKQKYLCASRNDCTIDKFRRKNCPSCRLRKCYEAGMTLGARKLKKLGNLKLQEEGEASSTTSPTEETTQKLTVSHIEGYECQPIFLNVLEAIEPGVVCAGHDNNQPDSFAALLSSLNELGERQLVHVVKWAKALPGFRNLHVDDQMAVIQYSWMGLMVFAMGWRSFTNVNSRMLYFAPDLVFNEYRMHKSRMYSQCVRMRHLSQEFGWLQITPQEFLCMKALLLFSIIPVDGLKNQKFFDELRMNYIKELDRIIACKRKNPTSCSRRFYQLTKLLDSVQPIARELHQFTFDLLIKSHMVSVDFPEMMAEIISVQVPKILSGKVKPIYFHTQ
The assay can be described thus: Androgen Receptor ELISA assay (PathScan AR ELISA) in VCaP cells: AR degradation, Dmax and DC50. It is filed as cell-based. The procedure, abridged: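 VCaP cells, 30,000/well, grown ≥3 days in phenol red-free RPMI with 5% charcoal-stripped FBS; compound added in 0.1% DMSO with 0.1 nM R1881, 7 half-log doses, 24 h. Lysate AR quantified by PathScan sandwich ELISA, HRP/TMB read at 450 nm, giving DC50 and Dmax.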

Setting [1] is: VCaP cells; concentration that caused 50% Androgen Receptor degradation; read-out: VCaP DC50.
Where [2] appears, read: VCaP, VCaP cells; highest percentage of Androgen Receptor degradation; read-out: VCaP Dmax (%).
Setting [3] is: read-out: VCaP DC50; VCaP cells; concentration that caused 50% Androgen Receptor degradation.
Where [4] appears, read: read-out: VCaP DC50; VCaP cells; Table 34.

Read-outs that look alike come from different tables or passages of the source. A value given as a limit tells only on which side of the number the result lay.

As usually defined, the DC50 is the concentration giving 50% degradation. Usually Dmax stands for the greatest extent of degradation seen. Turning to `CC(C)(C)[C@H](NC(=O)COCCCCOc1ccc(-c2ccc(N3C(=S)N(c4cnc(C#N)c(C(F)(F)F)c4)C(=O)C3(C)C)cc2)cc1)C(=O)N1C[C@H](O)C[C@H]1C(=O)NCc1ccc(-c2cnco2)cc1` [Example 190, (2S,4R)-1-[(2S)-2-(2-{4-[4-(4-{3-[6-cyano-5-(trifluoromethyl)pyridin-3-yl]-5,5-dimethyl-4-oxo-2-sulfanylideneimidazolidin-1-yl}phenyl)phenoxy]butoxy}acetamido)-3,3-dimethylbutanoyl]-4-hydroxy-N-{[4-(1,3-oxazol-5-yl)phenyl]methyl}pyrrolidine-2-carboxamide], under setting [1], the DC50 is less than 50 nM. The maximal degradation (Dmax) under setting [2] is greater than 71%.
For the molecule `CC(C)(C)[C@H](NC(=O)COCCCCOc1ccc(-c2ccc(N3C(=S)N(c4cnc(C#N)c(Cl)c4)C(=O)C3(C)C)cc2)cc1)C(=O)N1C[C@H](O)C[C@H]1C(=O)NCc1ccc(-c2cnco2)cc1` [Example 191, (2S,4R)-1-[(2S)-2-{2-[4-(4-{4-[3-(5-chloro-6-cyanopyridin-3-yl)-5,5-dimethyl-4-oxo-2-sulfanylideneimidazolidin-1-yl]phenyl}phenoxy)butoxy]acetamido}-3,3-dimethylbutanoyl]-4-hydroxy-N-{[4-(1,3-oxazol-5-yl)phenyl]methyl}pyrrolidine-2-carboxamide], the DC50 under setting [1] was less than 50 nM. Further, the greatest degradation seen (Dmax) under setting [2] is 51 to 70%.
In the same order, the values of `Cc1ncoc1-c1ccc(CNC(=O)[C@@H]2C[C@@H](O)CN2C(=O)[C@@H](NC(=O)COCCCCOc2ccc(-c3ccc(N4C(=S)N(c5cnc(C#N)c(C(F)(F)F)c5)C(=O)C4(C)C)cc3)cc2)C(C)(C)C)cc1` [Example 192, (2S,4R)-1-[(2S)-2-(2-{4-[4-(4-{3-[6-cyano-5-(trifluoromethyl)pyridin-3-yl]-5,5-dimethyl-4-oxo-2-sulfanylideneimidazolidin-1-yl}phenyl)phenoxy]butoxy}acetamido)-3,3-dimethylbutanoyl]-4-hydroxy-N-{[4-(4-methyl-1,3-oxazol-5-yl)phenyl]methyl}pyrrolidine-2-carboxamide] are less than 50 nM and greater than 71%.
In the same order, the values of `Cc1ncsc1-c1ccc(CNC(=O)[C@@H]2C[C@@H](O)CN2C(=O)[C@@H](NC(=O)COCCCCOc2ccc(-c3ccc(N4C(=S)N(c5cnc(C#N)c(C(F)(F)F)c5)C(=O)C4(C)C)cc3)cc2)C(C)(C)C)cc1` [Example 193, (2S,4R)-1-[(2S)-2-(2-{4-[4-(4-{3-[6-cyano-5-(trifluoromethyl)pyridin-3-yl]-5,5-dimethyl-4-oxo-2-sulfanylideneimidazolidin-1-yl}phenyl)phenoxy]butoxy}acetamido)-3,3-dimethylbutanoyl]-4-hydroxy-N-{[4-(4-methyl-1,3-thiazol-5-yl)phenyl]methyl}pyrrolidine-2-carboxamide] are less than 50 nM and greater than 71%.
Taken in the same sequence, the figures for `Cc1ncsc1-c1ccc([C@H](C)NC(=O)[C@@H]2C[C@@H](O)CN2C(=O)[C@@H](NC(=O)COCCCCOc2ccc(-c3ccc(N4C(=S)N(c5cnc(C#N)c(C(F)(F)F)c5)C(=O)C4(C)C)c(F)c3)cc2)C(C)(C)C)cc1` [Example 196, (2S,4R)-1-[(2S)-2-(2-{4-[4-(4-{3-[6-cyano-5-(trifluoromethyl)pyridin-3-yl]-5,5-dimethyl-4-oxo-2-sulfanylideneimidazolidin-1-yl}-3-fluorophenyl)phenoxy]butoxy}acetamido)-3,3-dimethylbutanoyl]-4-hydroxy-N-[(1S)-1-[4-(4-methyl-1,3-thiazol-5-yl)phenyl]ethyl]pyrrolidine-2-carboxamide] were less than 50 nM and greater than 71%.
For the molecule `Cc1ncoc1-c1ccc(CNC(=O)[C@@H]2C[C@@H](O)CN2C(=O)[C@@H](NC(=O)COCCCCOc2ccc(-c3ccc(N4C(=S)N(c5cnc(C#N)c(C(F)(F)F)c5)C(=O)C45CCC5)cc3)cc2)C(C)(C)C)cc1` [Example 198, (2S,4R)-1-[(2S)-2-(2-{4-[4-(4-{7-[6-cyano-5-(trifluoromethyl)pyridin-3-yl]-8-oxo-6-sulfanylidene-5,7-diazaspiro[3.4]octan-5-yl}phenyl)phenoxy]butoxy}acetamido)-3,3-dimethylbutanoyl]-4-hydroxy-N-{[4-(4-methyl-1,3-oxazol-5-yl)phenyl]methyl}pyrrolidine-2-carboxamide], under setting [1], the DC50 is less than 50 nM. The Dmax under setting [2] was 51 to 70%.
In the same order, the values of `Cc1ncsc1-c1ccc(CNC(=O)[C@@H]2C[C@@H](O)CN2C(=O)[C@@H](NC(=O)COCCCCOc2ccc(-c3ccc(N4C(=S)N(c5cnc(C#N)c(C(F)(F)F)c5)C(=O)C45CCC5)cc3)cc2)C(C)(C)C)cc1` [Example 199, (2S,4R)-1-[(2S)-2-(2-{4-[4-(4-{7-[6-cyano-5-(trifluoromethyl)pyridin-3-yl]-8-oxo-6-sulfanylidene-5,7-diazaspiro[3.4]octan-5-yl}phenyl)phenoxy]butoxy}acetamido)-3,3-dimethylbutanoyl]-4-hydroxy-N-{[4-(4-methyl-1,3-thiazol-5-yl)phenyl]methyl}pyrrolidine-2-carboxamide] are less than 50 nM and 51 to 70%.
With `CC(C)(C)[C@H](NC(=O)COCC1CC2(C1)CC(COc1ccc(N3C(=S)N(c4ccc(C#N)c(Cl)c4)C(=O)C3(C)C)cc1)C2)C(=O)N1C[C@H](O)C[C@H]1C(=O)NCc1ccc(-c2cnco2)cc1` (stereo partly shown) [Example 200], where the note is “VCaP, read-out: VCaP Dmax (%)”, the Dmax is greater than 71%. Besides, the DC50 under setting [3] was less than 50 nM.
Consider `Cc1ncsc1-c1ccc(CNC(=O)[C@@H]2C[C@@H](O)CN2C(=O)[C@@H](NC(=O)COCC2CC3(C2)CC(COc2ccc(N4C(=S)N(c5ccc(C#N)c(C(F)(F)F)c5)C(=O)C45CCC5)cc2)C3)C(C)(C)C)cc1` (stereo partly drawn) [Example 203, (2S,4R)-1-[(2S)-2-[2-({6-[(4-{7-[4-cyano-3-(trifluoromethyl)phenyl]-8-oxo-6-sulfanylidene-5,7-diazaspiro[3.4]octan-5-yl}phenoxy)methyl]spiro[3.3]heptan-2-yl}methoxy)acetamido]-3,3-dimethylbutanoyl]-4-hydroxy-N-{[4-(4-methyl-1,3-thiazol-5-yl)phenyl]methyl} pyrrolidine-2-carboxamide], for which, for the setting “VCaP, read-out: VCaP Dmax (%)”, the Dmax is greater than 71%. Also, under setting [3], the 50% degradation concentration (DC50) is less than 50 nM.
For the molecule `Cc1ncsc1-c1ccc(CNC(=O)[C@@H]2C[C@@H](O)CN2C(=O)[C@@H](NC(=O)CCOCCN2CCC(COc3ccc(N4C(=S)N(c5ccc(C#N)c(C(F)(F)F)c5)C(=O)C4(C)C)cc3)CC2)C(C)(C)C)cc1` [Example 313], the half-maximal degradation concentration (DC50) under setting [4] was less than 50 nM.
`Cc1ncsc1-c1ccc(CNC(=O)[C@@H]2C[C@@H](O)CN2C(=O)[C@H](C(C)C)N2CC(OCCOCCOc3ccc(N4C(=S)N(c5ccc(C#N)c(C(F)(F)F)c5)C(=O)C4(C)C)cc3)=CC2=O)cc1` [Example 314]: the maximal degradation (Dmax) (VCaP, read-out: VCaP Dmax (%)) is less than 25%. In addition, the half-maximal degradation concentration (DC50) under setting [4] was 51 to 500 nM.
Turning to `Cc1ncsc1-c1ccc(CNC(=O)[C@@H]2C[C@@H](O)CN2C(=O)[C@@H](NC(=O)CCCOCCCOCCOc2ccc(N3C(=S)N(c4ccc(C#N)c(C(F)(F)F)c4)C(=O)C3(C)C)cc2)C(C)(C)C)cc1` [Example 315], the Dmax (VCaP, read-out: VCaP Dmax (%)) was in the range of 26 to 50%. The 50% degradation concentration (DC50) under setting [4] is 51 to 500 nM.
Taken in the same sequence, the figures for `Cc1ncsc1-c1ccc(CNC(=O)[C@@H]2C[C@@H](O)CN2C(=O)[C@@H](NC(=O)CNCCCCOCCCOc2ccc(N3C(=S)N(c4ccc(C#N)c(C(F)(F)F)c4)C(=O)C3(C)C)cc2)C(C)(C)C)cc1` [Example 316] were 26 to 50% and 51 to 500 nM.

Source of the values: patent US11427548B2 (Arvinas Operations, Inc., priority 2015, dated 2022).
